Reference: paper PMC7036753, “Lipidated Analogs of the LL-37-Derived Peptide Fragment KR12—Structural Analysis, Surface-Active Properties and Antimicrobial Activity” (International Journal of Molecular Sciences, 2020)
In brackets after ≈: the same amount, converted by molar mass. Ends that are not written are not given here. Peptide text beside a SMILES is read from it. * marks the point of attachment. Myristoyl = CCCCCCCCCCCCCC(=O)*; Octanoyl = CCCCCCCC(=O)*; X1 = O=C(/C=C/c1ccccc1)*

Columns and labels:
E. faecium ATCC 700221 = assay type: cell-based, Enterococcus faecium; settings: ATCC 700221, 18 h
Description: (§1) Examination of antimicrobial activity of the test compounds was conducted on reference strains of bacteria assigned to ESKAPE group of pathogens: Enterococcus faecium ATCC 700221, Klebsiella pneumoniae ATCC 700603, Acinetobacter baumannii ATCC BAA-1605, Pseudomonas aeruginosa ATCC 9027, Klebsiella aerogenes ATCC 13048 (formerly Enterobacter aerogenes) and reference strains of Staphylococcus aureus, namely: S. aureus ATCC 25923, S. aureus ATCC 6538, S. aureus ATCC 33591 (MRSA), S. aureus ATCC 9144 and S. aureus ATCC 12598. All the strains were stored at −80 °C in Roti®-Store cryo vials (Carl Roth GmbH, Karlsruhe, Germany) and before the tests were transferred into fresh Mueller-Hinton Medium (BioMaxima, Lublin, Poland) and incubated for 24 h at 37 °C. Subsequently, each bacterial inoculum was seeded on Mueller-Hinton Agar plates (BioMaxima) and incubated again for 24 h. The cultures prepared in this way were used in further antimicrobial assays and prepared as described above. The MIC values were determined by the broth microdilution method according to Clinical and Laboratory Standards Institute Protocol. For this purpose, initial inoculums of bacteria (0.5 × 10^5 colony forming unit (CFU)/mL) in Mueller–Hinton Broth were exposed to the ranging concentrations of compounds (0.5–256 µg/mL) and incubated for 18 h at 37 °C. The experiments were conducted on 96-well microtiter plates, with a final volume of 100 µL. Cell densities were adjusted spectrophotometrically (Multiskan™ GO Microplate Spectrophotometer, Thermo Scientific) at 600 nm. The MICs were taken as the lowest drug concentration at which a visible growth of microorganisms was inhibited. All experiments were conducted in triplicate and included positive (growth) and negative (sterility) controls.

P. aeruginosa ATCC 9027 = assay type: cell-based, Pseudomonas aeruginosa; settings: ATCC 9027, 18 h
Description: as §1

[1] = tested on: biofilm of S. aureus strains; test: MBEC over reference strains of S. aureus; assay type: cell-based, Staphylococcus aureus
Description: (§2) The MBECs values were determined according to the method reported previously. Briefly, 24-h cultures of S. aureus, namely: S. aureus ATCC 25923, S. aureus ATCC 6538, S. aureus ATCC 33591 (MRSA), S. aureus ATCC 9144 and S. aureus ATCC 12598 were diluted to a concentration of 0.5 × 10^7 CFU/mL and added to the test wells of polystyrene microdilution flat-bottom plates. After 24-h of incubation at 37 °C, the wells were rinsed three times with PBS to remove non-adherent cells. Subsequently, 100 μL of the test compounds over a concentration range 0.5–256 µg/mL were added to each well and incubated again for 24 h at 37 °C. After this period, 20 μL of the resazurin (7-hydroxy-3H-phenoxazin-3-one-10-oxide, 4 mg/mL) solution was added to each well. After 1 h of incubation, the MBECs were read out. The determined values were recorded as the lowest concentration at which the reduction of resazurin (from blue to pink) was lower or equal to 10 ± 0.5% as compared to the positive (100%) and negative (0%) controls. All experiments were performed in triplicate.

[2] = tested on: human keratinocytes (HaCaT); assay type: cell-based; settings: 24 h
Description: The cytotoxicity of test compounds (IC50) was evaluated for human keratinocytes (HaCaT, ATCC) using classic MTT assay on 96-well plates. In this assay, a colorimetric determination of the cell metabolic activity was carried out. Specifically, the color intensity reflects the number of live cells that can be measured spectrophotometrically. […] A day after plating 500 cells per well, a series of concentrations (0.5–500 μg/mL) of the test compounds were added. Dimethyl sulfoxide (DMSO) was used as a control in cells at a final concentration of 1.0% (v/v), which was related to the maximal concentration of the solvent compounds used in the experiment. After 24 h of incubation with test compounds, a medium containing 1 mg/mL of MTT was added up to a final concentration of 0.5 mg/mL and subsequently incubated at 37 °C for 4 h. Then, the medium was aspirated and the formazan product was solubilized with DMSO. The background absorbance at 630 nm was subtracted from that at 570 nm for each well (Epoch, BioTek Instruments, Winooski, VT, USA). Six replicates were conducted for each concentration. All experiments were repeated at least twice and the resulting IC50 values were calculated with a GraFit 7 software (v. 7.0, Erithacus, Berkley, CA, USA).

[3] = tested on: K. pneumoniae ATCC 700603; assay type: cell-based, Klebsiella pneumoniae; settings: ATCC 700603, 18 h
Description: as §1

[4] = tested on: S. aureus ATCC 25923 biofilm; assay type: cell-based, Staphylococcus aureus; settings: ATCC 25923, 24 h
Description: as §2

[5] = tested on: S. aureus ATCC 9144 biofilm; assay type: cell-based, Staphylococcus aureus; settings: ATCC 9144, 24 h
Description: as §2

[6] = tested on: S. aureus ATCC 12598 biofilm; assay type: cell-based, Staphylococcus aureus; settings: ATCC 12598, 24 h
Description: as §2

[7] = tested on: S. aureus ATCC 33591 (MRSA) biofilm; assay type: cell-based, Staphylococcus aureus; settings: ATCC 33591, 24 h
Description: as §2

[8] = tested on: S. aureus ATCC 6538 biofilm; assay type: cell-based, Staphylococcus aureus; settings: ATCC 6538, 24 h
Description: as §2

[9] = tested on: A. baumannii ATCC BAA-1605; assay type: cell-based, Acinetobacter baumannii; settings: ATCC BAA-1605, 18 h
Description: as §1

K. aerogenes ATCC 13048 = assay type: cell-based, Klebsiella aerogenes; settings: ATCC 13048, 18 h
Description: as §1

[10] = tested on: reference strains of S. aureus; assay type: cell-based, Staphylococcus aureus; settings: reference strains of, 24 h
Description: as §1, with “For this purpose, initial inoculums of bacteria (0.5 × 10^5 colony forming unit (CFU)/mL) in Mueller–Hinton Broth were exposed to the ranging concentrations of compounds (0.5–256 µg/mL) and incubated for 18 h at 37 °C.” left out

ESKAPE strains = assay type: cell-based; settings: 24 h
Description: as §1, with “For this purpose, initial inoculums of bacteria (0.5 × 10^5 colony forming unit (CFU)/mL) in Mueller–Hinton Broth were exposed to the ranging concentrations of compounds (0.5–256 µg/mL) and incubated for 18 h at 37 °C.” left out, “The MICs were taken as the lowest drug concentration at which a visible growth of microorganisms was inhibited. All experiments were conducted in triplicate and included positive (growth) and negative (sterility) controls.” left out

[11] = tested on: S. aureus ATCC 33591 (MRSA); assay type: cell-based, Staphylococcus aureus; settings: ATCC 33591, 18 h
Description: as §1

S. aureus ATCC 25923 = assay type: cell-based, Staphylococcus aureus; settings: ATCC 25923, 18 h
Description: as §1

S. aureus ATCC 6538 = assay type: cell-based, Staphylococcus aureus; settings: ATCC 6538, 18 h
Description: as §1

S. aureus ATCC 9144 = assay type: cell-based, Staphylococcus aureus; settings: ATCC 9144, 18 h
Description: as §1

S. aureus ATCC 12598 = assay type: cell-based, Staphylococcus aureus; settings: ATCC 12598, 18 h
Description: as §1

Compound	MIC (E. faecium ATCC 700221) [µg/mL]	MIC (P. aeruginosa ATCC 9027) [µg/mL]	MBEC range [1] [µg/mL]	IC50 [2] [µg/mL]	MIC [3] [µg/mL]	MBEC [4] [µg/mL]	MBEC [5] [µg/mL]	MBEC [6] [µg/mL]	MBEC [7] [µg/mL]	MBEC [8] [µg/mL]	MIC [9] [µg/mL]	MIC (K. aerogenes ATCC 13048) [µg/mL]	GM (geometric mean of the MIC values against S. aureus) [10] [µg/mL]	MIC range (ESKAPE strains) [µg/mL]	MIC [11] [µg/mL]	MIC (S. aureus ATCC 25923) [µg/mL]	MIC (S. aureus ATCC 6538) [µg/mL]	MIC (S. aureus ATCC 9144) [µg/mL]	MIC (S. aureus ATCC 12598) [µg/mL]
CCCCCCCC(=O)N[C@@H](CCCCN)C(=O)N[C@@H](CCCNC(=N)N)C(=O)N[C@H](C(=O)N[C@H](C(=O)N[C@@H](CCC(N)=O)C(=O)N[C@@H](CCCNC(=N)N)C(=O)N[C@H](C(=O)N[C@@H](CCCCN)C(=O)N[C@@H](CC(=O)O)C(=O)N[C@@H](Cc1ccccc1)C(=O)N[C@@H](CC(C)C)C(=O)N[C@@H](CCCNC(=N)N)C(N)=O)[C@@H](C)CC)C(C)C)[C@@H](C)CC [IV, C8-KR12-NH2] (Octanoyl-KRIVQRIKDFLR-NH2)	1 (≈ 0.589 µM)	2 (≈ 1.18 µM)	4 to 16	3.23 (≈ 1.9 µM)	2 (≈ 1.18 µM)	8	4	4	4	16	2 (≈ 1.18 µM)	2 (≈ 1.18 µM)	2.30	1 to 4	2 (≈ 1.18 µM)	2 (≈ 1.18 µM)	2 (≈ 1.18 µM)	2 (≈ 1.18 µM)	4 (≈ 2.36 µM)
CC[C@H](C)[C@H](NC(=O)[C@H](CCCNC(=N)N)NC(=O)[C@H](CCC(N)=O)NC(=O)[C@@H](NC(=O)[C@@H](NC(=O)[C@H](CCCNC(=N)N)NC(=O)[C@H](CCCCN)NC(=O)/C=C/c1ccccc1)[C@@H](C)CC)C(C)C)C(=O)N[C@@H](CCCCN)C(=O)N[C@@H](CC(=O)O)C(=O)N[C@@H](Cc1ccccc1)C(=O)N[C@@H](CC(C)C)C(=O)N[C@@H](CCCNC(=N)N)C(N)=O [IX, trans-Cinnamic acid-KR12-NH2] (X1-KRIVQRIKDFLR-NH2)	1 (≈ 0.588 µM)	4 (≈ 2.35 µM)	–	10.00 (≈ 5.88 µM)	4 (≈ 2.35 µM)	32	8	4	16	8	4 (≈ 2.35 µM)	4 (≈ 2.35 µM)	4.00	1 to 8	4 (≈ 2.35 µM)	8 (≈ 4.7 µM)	2 (≈ 1.18 µM)	4 (≈ 2.35 µM)	4 (≈ 2.35 µM)
CCCCCCCCCCCCCC(=O)N[C@@H](CCCCN)C(=O)N[C@@H](CCCNC(=N)N)C(=O)N[C@H](C(=O)N[C@H](C(=O)N[C@@H](CCC(N)=O)C(=O)N[C@@H](CCCNC(=N)N)C(=O)N[C@H](C(=O)N[C@@H](CCCCN)C(=O)N[C@@H](CC(=O)O)C(=O)N[C@@H](Cc1ccccc1)C(=O)N[C@@H](CC(C)C)C(=O)N[C@@H](CCCNC(=N)N)C(N)=O)[C@@H](C)CC)C(C)C)[C@@H](C)CC [VII, C14-KR12-NH2] (Myristoyl-KRIVQRIKDFLR-NH2)	8 (≈ 4.49 µM)	128 (≈ 71.9 µM)	–	1.29 (≈ 0.724 µM)	64 (≈ 35.9 µM)	256	128	64	256	256	32 (≈ 18 µM)	128 (≈ 71.9 µM)	64.00	–	16 (≈ 8.98 µM)	128 (≈ 71.9 µM)	64 (≈ 35.9 µM)	64 (≈ 35.9 µM)	128 (≈ 71.9 µM)
Ac-KRIVQRIKDFLR-NH2 [I, Ac-KR12-NH2 (C2-KR12-NH2)]	16	64	–	84.20	>256	>256	>256	>256	>256	>256	>256	>256	>256.00	–	>256	>256	256	>256	>256
KRIVQRIKDFLR-NH2 [X, KRIVQRIKDFLR-NH2]	8	16	–	74.60	>256	>256	>256	>256	>256	>256	256	>256	>256.00	–	>256	>256	256	>256	>256
